The first assay addresses T1, His-Tagged hOGA (Homo sapiens, UniProt O60502).
T1 sequence (O60502 1-916): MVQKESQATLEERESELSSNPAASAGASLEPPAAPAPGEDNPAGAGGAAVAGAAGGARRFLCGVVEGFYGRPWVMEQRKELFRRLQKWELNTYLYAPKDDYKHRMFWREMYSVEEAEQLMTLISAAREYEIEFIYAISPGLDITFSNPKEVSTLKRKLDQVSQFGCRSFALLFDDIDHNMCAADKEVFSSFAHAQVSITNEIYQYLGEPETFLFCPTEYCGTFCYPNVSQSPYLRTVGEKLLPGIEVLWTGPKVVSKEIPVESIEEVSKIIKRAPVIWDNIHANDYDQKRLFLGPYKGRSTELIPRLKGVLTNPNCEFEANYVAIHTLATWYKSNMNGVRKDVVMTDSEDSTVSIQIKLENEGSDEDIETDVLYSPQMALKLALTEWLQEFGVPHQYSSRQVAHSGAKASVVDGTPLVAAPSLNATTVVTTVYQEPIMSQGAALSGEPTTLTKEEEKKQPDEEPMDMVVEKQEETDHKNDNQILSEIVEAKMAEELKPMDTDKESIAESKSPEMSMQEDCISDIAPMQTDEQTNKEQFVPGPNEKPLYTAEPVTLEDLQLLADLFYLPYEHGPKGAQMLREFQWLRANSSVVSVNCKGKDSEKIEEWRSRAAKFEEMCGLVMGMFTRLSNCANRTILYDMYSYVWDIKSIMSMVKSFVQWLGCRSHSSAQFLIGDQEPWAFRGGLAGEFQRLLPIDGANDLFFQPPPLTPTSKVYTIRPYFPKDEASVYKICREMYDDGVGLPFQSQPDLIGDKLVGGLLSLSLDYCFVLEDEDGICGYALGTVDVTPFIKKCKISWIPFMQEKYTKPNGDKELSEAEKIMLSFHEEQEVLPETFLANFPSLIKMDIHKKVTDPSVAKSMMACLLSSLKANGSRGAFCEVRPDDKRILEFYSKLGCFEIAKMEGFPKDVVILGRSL
Nature of the assay: Human O-GlcNAcase enzyme inhibition assay. It counts as biochemical.
Conditions: not given
As for the experimental part:
The following reaction components were added to a final volume of 10 μL in Mcllvaine's Buffer (pH 6.5): 20 nM His-Tagged hOGA and 10 μM Fluorescein mono-beta-D-(2-deoxy-2-N-acetyl) glucopyranoside (FL-GlcNAc; Marker Gene Technologies Inc, Part # M1485). […] The amount of fluorescence measured was plotted against the concentration of inhibitor to produce a sigmoidal dose response curve, from which an IC50 was calculated.
What is called IC50 is the midpoint of a concentration-inhibition curve. On to `CC(=O)Nc1ncc(CN2CCC(Cc3ccc(C)cc3)CC2)s1` [Compound 54, N-(5-((4-(4-METHYLBENZYL)PIPERIDIN-1-YL)METHYL)THIAZOL-2-YL)ACETAMIDE], for which the 50% inhibitory concentration (IC50) was below 200 nM.

`CC(=O)Nc1ncc(CN2CCC(C#N)(c3ccccc3)CC2)s1` [Compound 23, N-[5-(4-cyano-4-phenyl-piperidin-1-ylmethyl)-thiazol-2-yl]-acetamide]: the IC50 is above 10000 nM.

Consider `COc1ccc(CC2CCN(Cc3cnc(NC(C)=O)s3)CC2)cc1` [Compound 55, N-(5-((4-(4-METHOXYBENZYL)PIPERIDIN-1-YL)METHYL)THIAZOL-2-YL)ACETAMIDE], for which the concentration for half-maximal inhibition (IC50) is below 200 nM.

For the molecule `CC(=O)Nc1ncc(CN2CCC(Cc3ccccc3)CC2C)s1` (centres unmarked) [Compound 51, N-(5-((4-BENZYL-2-METHYLPIPERIDIN-1-YL)METHYL)THIAZOL-2-YL)ACETAMIDE], the IC50 is below 200 nM.

The assay is the same for the next values; noted with them: 20 nM His-Tagged hOGA, 10 μM FL-GlcNAc, pH 6.5, 60 min; read-out: hOGA enzyme inhibition (IC50).
Take `CC(=O)Nc1ncc(CN2CCC(c3ccccc3C(=O)O)CC2)s1` [Compound 44, 2-(1-((2-acetamidothiazol-5-yl)methyl)piperidin-4-yl)benzoic acid]: the IC50 was above 10000 nM.

Take `CC(=O)Nc1ncc(CN2CCC(Cc3ccc4nccnc4c3)CC2)s1` [Compound 63]: the IC50 was below 200 nM.

Consider `CC(=O)Nc1ncc(CN2CCN(C(C)c3ccc4c(c3)OCO4)CC2)s1` (centres unmarked) [Compound 58, N-(5-((4-(1-(BENZO[D][1,3]DIOXOL-5-YL)ETHYL)PIPERAZIN-1-YL)METHYL)THIAZOL-2-YL)ACETAMIDE], for which the IC50 was 1000 to 10000 nM.

On to `c1ccc(C2CCN(Cc3cnc(NC4CC4)s3)CC2)cc1` [Compound 12, N-cyclopropyl-5-((4-phenylpiperidin-1-yl)methyl)thiazol-2-amine], for which the IC50 is above 10000 nM.

On to `CCCNc1ncc(CN2CCC(c3ccccc3)CC2)s1` [Compound 6, 5-((4-phenylpiperidin-1-yl)methyl)-N-propylthiazol-2-amine], for which the IC50 was above 10000 nM.

For the molecule `Cc1ncc(CN2CCC(c3ccccc3)CC2)s1` [Compound 7, 2-methyl-5-((4-phenylpiperidin-1-yl)methyl)thiazole], the IC50 is above 10000 nM.

For `C=CC(=O)Nc1ncc(CN2CCC(c3ccccc3)CC2)s1` [Compound 4, N-[5-(4-phenyl-piperidin-1-ylmethyl)-thiazol-2-yl]-acrylamide], the IC50 is 1000 to 10000 nM.

On to `CCNc1ncc(CN2CCC(c3ccccc3)CC2)s1` [Compound 5, N-ethyl-5-((4-phenylpiperidin-1-yl)methyl)thiazol-2-amine], for which the half-inhibitory concentration (IC50) is above 10000 nM.

In the case of `CC(=O)Nc1ncc(CN2CCC(CCc3ccccc3)CC2)s1` [Compound 62], the IC50 is below 200 nM.

Regarding `CC(c1ccc2c(c1)OCO2)N1CCN(Cc2cnc(N3CCNC(=O)C3)s2)CC1` (centres unmarked) [Compound 59, 4-(5-((4-(1-(BENZO[D][1,3]DIOXOL-5-YL)ETHYL)PIPERAZIN-1-YL)METHYL)THIAZOL-2-YL)PIPERAZIN-2-ONE], the IC50 fell in the range of 1000 to 10000 nM.

As for `CC(=O)N(C)c1ncc(CN2CCC(c3ccccc3)CC2)s1` [Compound 9, N-methyl-N-(5-((4-phenylpiperidin-1-yl)methyl)thiazol-2-yl)acetamide], the IC50 lay within 1000 to 10000 nM.

Consider `CC(=O)Nc1ncc(CN2CCC(O)(c3ccccc3)CC2)s1` [Compound 24, N-[5-(4-hydroxy-4-phenyl-piperidin-1-ylmethyl)-thiazol-2-yl]-acetamide], for which the IC50 is 1000 to 10000 nM.

`CC(=O)Nc1ncc(CN2CCC(Cc3ccccc3)C(C)C2)s1` (centres unmarked) [Compound 53, N-(5-((4-BENZYL-3-METHYLPIPERIDIN-1-YL)METHYL)THIAZOL-2-YL)ACETAMIDE]: the 50% inhibitory concentration (IC50) is below 200 nM.

Regarding `CC(=O)Nc1ncc(CN2CCC(Cc3ccc4c(c3)OCO4)CC2)s1` [Compound 47], the IC50 is below 200 nM.

As for `CC(=O)Nc1ncc(CN2CCC(c3ccccc3)CC2)o1` [Compound 13], the half-inhibitory concentration (IC50) is 1000 to 10000 nM.

Take `CC(=O)Cc1ncc(CN2CCC(c3ccccc3)CC2)s1` [Compound 17]: the IC50 was above 10000 nM.

For `CS(=O)(=O)Nc1ncc(CN2CCC(c3ccccc3)CC2)s1` [Compound 11, N-[5-(4-phenyl-piperidin-1-ylmethyl)-thiazol-2-yl]-methanesulfonamide], the IC50 is above 10000 nM.

As to `CCc1ncc(CN2CCC(c3ccccc3)CC2)s1` [Compound 8, 2-ethyl-5-((4-phenylpiperidin-1-yl)methyl)thiazole], the IC50 was above 10000 nM.

For `CC(=O)Nc1ncc(CN2CCC(Cc3ccc4ccccc4c3)CC2)s1` [Compound 56], the IC50 was below 200 nM.

As to `CC(=O)Nc1ncc(CN2CCC(C)CC2)s1` [Compound 15, N-[5-(4-methyl-piperidin-1-ylmethyl)-thiazol-2-yl]-acetamide], the IC50 was in the range of 1000 to 10000 nM.

Consider `CC(=O)Nc1ncc(CN2CCC(Cc3ccc(F)cc3)CC2)s1` [Compound 48, N-(5-((4-(4-FLUOROBENZYL)PIPERIDIN-1-YL)METHYL)THIAZOL-2-YL)ACETAMIDE], for which the IC50 was below 200 nM.

For the molecule `CC(=O)Nc1ncc(CN2CCC(Cc3ccccc3)C(F)C2)s1` (single isomer, unassigned) [Compound 52, N-(5-((-4-BENZYL-3-FLUOROPIPERIDIN-1-YL)METHYL)THIAZOL-2-YL)ACETAMIDE], the IC50 was below 200 nM.

Turning to `CNC(=O)Nc1ncc(CN2CCC(c3ccccc3)CC2)s1` [Compound 10, 1-methyl-3-(5-((4-phenylpiperidin-1-yl)methyl)thiazol-2-yl)urea], the 50% inhibitory concentration (IC50) fell in the range of 1000 to 10000 nM.

For `CC(=O)Nc1ncc(CN2CCC(Cc3ccc(Cl)cc3)CC2)s1` [Compound 46, N-(5-((4-(4-chlorobenzyl)piperidin-1-yl)methyl)thiazol-2-yl)acetamide], the IC50 was below 200 nM.

Turning to `CCC(=O)Nc1ncc(CN2CCC(c3ccccc3)CC2)s1` [Compound 3, N-(5-((4-phenylpiperidin-1-yl)methyl)thiazol-2-yl)propionamide], the IC50 was 200 to 1000 nM.

As for `CC(=O)Nc1ncc(CN2CCC(Cc3cc(F)cc(F)c3)CC2)s1` [Compound 64, N-(5-((4-(3,5-DIFLUOROBENZYL)PIPERIDIN-1-YL)METHYL)THIAZOL-2-YL)ACETAMIDE], the IC50 was below 200 nM.

`CC(=O)Nc1ncc(CN2CCC(N(C)C)CC2)s1` [Compound 34, N-(5-((4-(dimethylamino)piperidin-1-yl)methyl)thiazol-2-yl)acetamide]: the concentration for half-maximal inhibition (IC50) is above 10000 nM.

For the molecule `CC(=O)Nc1ncc(CN2CCC(Cc3cccc(F)c3)CC2)s1` [Compound 50, N-(5-((4-(3-FLUOROBENZYL)PIPERIDIN-1-YL)METHYL)THIAZOL-2-YL)ACETAMIDE], the IC50 was below 200 nM.

Consider `CC(=O)Nc1ncc(CN2CCC(Cc3ccc(C(F)(F)F)cc3)CC2)s1` [Compound 49, N-(5-((4-(4-(TRIFLUOROMETHYL)BENZYL)PIPERIDIN-1-YL)METHYL)THIAZOL-2-YL)ACETAMIDE], for which the half-maximal inhibitory concentration (IC50) is below 200 nM.

Take `CCC(=O)Cc1ncc(CN2CCC(c3ccccc3)CC2)s1` [Compound 18]: the 50% inhibitory concentration (IC50) is above 10000 nM.

`CC(=O)Nc1ncc(CN2CCC(Oc3ccccc3)CC2)s1` [Compound 61, N-(5-((4-PHENOXYPIPERIDIN-1-YL)METHYL)THIAZOL-2-YL)ACETAMIDE]: the IC50 was 200 to 1000 nM.

Source of the values: patent US10301299B2, “Glycosidase inhibitors” (Merck Patent GmbH, priority 2013, dated 2019).
